# In patent US7960339B2, “Antimicrobial peptides” (Österreichische Akademie der Wissenschaften, priority 2006, dated 2011):
# Peptide text beside a SMILES is read from it. * marks the point of attachment. Dicyclohexylacetyl = O=C(C(C1CCCCC1)C1CCCCC1)*; Butanoyl(2,2-Me2) = CCC(C)(C)C(=O)*; Octanoyl = CCCCCCCC(=O)*; X1 = CCCCC(CC)C(=O)*
# Tested on: C. neoformans ATCC 32045
# Type: cell-based
# Details: ATCC 32045, 72 h
# Method: C. neoformans ATCC 32045 cultures were maintained on yeast medium (YM; Difco Laboratories, Detroit, Mich.) agar plates at 4° C. Prior to the assay, the cultures were grown on agar plates and incubated for 72 hrs at 26° C. Two colonies of these newly grown fungal cultures were then inoculated in 5 ml of 2×YM broth, vortexed, and diluted 10-fold in 2×YM broth, for an approximate final assay concentration of 1×105 to 5×10^5 CFU/ml. In 96-well tissue culture plates, fungal suspensions in 2×YM broth were added to the peptides dispensed at concentrations ranging from 1 mg/ml to 1 μg/ml derived from serial twofold dilutions in sterile water. The plates were then incubated for 72 hrs at 26° C. The relative percent growth of the fungi found for each test sample was determined by the optical density at 620 nm (OD620) by using a Titertek Multiskan Plus apparatus. […] The IC50 were calculated by using a sigmoidal curve-fitting software program (Graphpad Prism; ISI Software, San Diego, Calif.).
Structure (SMILES),average IC50 [µg/mL],average MIC [µg/mL]
"CC[C@H](C)[C@H](NC(=O)[C@H](CCCNC(=N)N)NC(=O)[C@H](CCCCN)NC(=O)[C@H](Cc1c[nH]c2ccccc12)NC(=O)[C@H](CCCNC(=N)N)NC(=O)C(C1CCCCC1)C1CCCCC1)C(=O)N[C@@H](CC(N)=O)C(=O)N[C@@H](CCCNC(=N)N)C(=O)N[C@@H](CCC(N)=O)C(=O)N[C@@H](Cc1c[nH]c2ccccc12)C(=O)N[C@@H](Cc1ccccc1)C(N)=O [VS1-49, dicyclohexylacetyl RWKRINRQWF-NH2] (Dicyclohexylacetyl-RWKRINRQWF-NH2)",2,4
"CCCCCCCC(=O)N1CCC[C@H]1C(=O)N[C@@H](Cc1ccccc1)C(=O)N[C@@H](Cc1c[nH]c2ccccc12)C(=O)N[C@@H](CCCNC(=N)N)C(=O)N[C@H](C(=O)N[C@@H](CCCNC(=N)N)C(=O)N[C@H](C(=O)N[C@@H](CCCNC(=N)N)C(=O)N[C@@H](CCCNC(=N)N)C(N)=O)[C@@H](C)CC)[C@@H](C)CC [VS1-50, octanoyl PFWRIRIRR-NH2] (Octanoyl-PFWRIRIRR-NH2)",6,16
"CCCCC(CC)C(=O)N1CCC[C@H]1C(=O)N[C@@H](Cc1ccccc1)C(=O)N[C@@H](Cc1c[nH]c2ccccc12)C(=O)N[C@@H](CCCNC(=N)N)C(=O)N[C@H](C(=O)N[C@@H](CCCNC(=N)N)C(=O)N[C@H](C(=O)N[C@@H](CCCNC(=N)N)C(=O)N[C@@H](CCCNC(=N)N)C(N)=O)[C@@H](C)CC)[C@@H](C)CC (some centres unmarked) [VS1-51, 2-ethylhexanoyl PFWRIRIRR-NH2] (X1-PFWRIRIRR-NH2)",3,8
"CC[C@H](C)[C@H](NC(=O)[C@H](CCCNC(=N)N)NC(=O)[C@@H](NC(=O)[C@H](CCCNC(=N)N)NC(=O)[C@H](Cc1c[nH]c2ccccc12)NC(=O)[C@H](Cc1ccccc1)NC(=O)[C@@H]1CCCN1C(=O)C(C1CCCCC1)C1CCCCC1)[C@@H](C)CC)C(=O)N[C@@H](CCCNC(=N)N)C(=O)N[C@@H](CCCNC(=N)N)C(N)=O [VS1-54, dicyclohexylacetyl PFWRIRIRR-NH2] (Dicyclohexylacetyl-PFWRIRIRR-NH2)",3,8
"CCCCCCCC(=O)N[C@@H](Cc1ccccc1)C(=O)N[C@@H](Cc1c[nH]c2ccccc12)C(=O)N[C@@H](CCCNC(=N)N)C(=O)N[C@H](C(=O)N[C@@H](CCCNC(=N)N)C(=O)N[C@H](C(=O)N[C@@H](CCCNC(=N)N)C(=O)N[C@@H](CCCNC(=N)N)C(N)=O)[C@@H](C)CC)[C@@H](C)CC [VS1-55, octanoyl FWRIRIRR-NH2] (Octanoyl-FWRIRIRR-NH2)",4,16
"CCCCC(CC)C(=O)N[C@@H](Cc1ccccc1)C(=O)N[C@@H](Cc1c[nH]c2ccccc12)C(=O)N[C@@H](CCCNC(=N)N)C(=O)N[C@H](C(=O)N[C@@H](CCCNC(=N)N)C(=O)N[C@H](C(=O)N[C@@H](CCCNC(=N)N)C(=O)N[C@@H](CCCNC(=N)N)C(N)=O)[C@@H](C)CC)[C@@H](C)CC (some centres unmarked) [VS1-56, 2-ethylhexanoyl FWRIRIRR-NH2] (X1-FWRIRIRR-NH2)",3,16
"CC[C@H](C)[C@H](NC(=O)[C@H](CCCNC(=N)N)NC(=O)[C@@H](NC(=O)[C@H](CCCNC(=N)N)NC(=O)[C@H](Cc1c[nH]c2ccccc12)NC(=O)[C@H](Cc1ccccc1)NC(=O)C(C)(C)CC)[C@@H](C)CC)C(=O)N[C@@H](CCCNC(=N)N)C(=O)N[C@@H](CCCNC(=N)N)C(N)=O [VS1-57, 2,2-dimethylbutanoyl FWRIRIRR-NH2] ({Butanoyl(2,2-Me2)}-FWRIRIRR-NH2)",2,4
